From PubChem BioAssay AID743339 (Broad Institute, 2014)
Calls of active or inactive are those of the source.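 Rule for the calls: active = activation curve crossing 200% at or below the highest valid dose tested for that sample; inconclusive = flat curve with activation between 30 and 70%, or poor fit; inactive = the rest, including signal falling instead of rising.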

Target: Leucyl-cystinyl aminopeptidase (Mus musculus) (UniProt Q8C129)
Test: activation of mouse IRAP aminopeptidase activity – biochemical, Leu-AMC fluorescence, cherry-picked samples, selectivity assay for ERAP1 modulator project, dose response (AID 743339)
Details: purified IRAP, Leu-AMC cleavage fluorescence, 1 h

Sequence of Leucyl-cystinyl aminopeptidase (Mus musculus) (Q8C129 whole entry, looked up): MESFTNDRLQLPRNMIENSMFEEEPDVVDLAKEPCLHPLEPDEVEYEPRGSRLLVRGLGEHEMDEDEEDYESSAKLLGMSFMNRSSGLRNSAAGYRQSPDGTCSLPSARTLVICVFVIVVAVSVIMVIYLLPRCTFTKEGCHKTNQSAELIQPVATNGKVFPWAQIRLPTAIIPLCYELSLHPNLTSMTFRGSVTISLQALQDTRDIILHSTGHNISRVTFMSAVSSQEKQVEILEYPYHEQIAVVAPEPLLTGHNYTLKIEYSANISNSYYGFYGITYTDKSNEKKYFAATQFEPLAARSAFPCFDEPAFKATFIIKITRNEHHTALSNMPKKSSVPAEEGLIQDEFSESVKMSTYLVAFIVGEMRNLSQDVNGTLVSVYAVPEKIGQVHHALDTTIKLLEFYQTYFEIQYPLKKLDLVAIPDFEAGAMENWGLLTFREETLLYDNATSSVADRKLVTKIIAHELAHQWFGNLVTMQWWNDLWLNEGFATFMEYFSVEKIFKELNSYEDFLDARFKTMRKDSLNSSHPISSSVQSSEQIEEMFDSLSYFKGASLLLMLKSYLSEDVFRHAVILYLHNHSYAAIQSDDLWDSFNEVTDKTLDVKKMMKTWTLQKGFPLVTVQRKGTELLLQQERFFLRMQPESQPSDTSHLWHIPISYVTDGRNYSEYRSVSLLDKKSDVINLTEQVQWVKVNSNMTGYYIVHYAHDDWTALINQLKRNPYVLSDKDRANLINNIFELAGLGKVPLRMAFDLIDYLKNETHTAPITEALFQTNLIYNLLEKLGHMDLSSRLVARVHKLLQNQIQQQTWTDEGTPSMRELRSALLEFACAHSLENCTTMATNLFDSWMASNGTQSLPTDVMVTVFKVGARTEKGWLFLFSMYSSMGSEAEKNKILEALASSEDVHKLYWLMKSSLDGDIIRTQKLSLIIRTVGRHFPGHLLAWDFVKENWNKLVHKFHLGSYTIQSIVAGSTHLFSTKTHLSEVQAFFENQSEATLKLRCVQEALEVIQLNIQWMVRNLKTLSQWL

| Compound | AC200 |
| --- | --- |
| CC(=O)N1[C@@H]2c3ccc(/C=C/c4ccccc4)c(=O)n3C[C@H]1[C@H](CO)[C@H]2C(=O)N1CCOCC1 | 1100 nM |
| CCNC(=O)[C@@H]1[C@@H](CO)[C@@H]2Cn3c(ccc(/C=C/c4ccccc4)c3=O)[C@H]1N2C(=O)C1CCCC1 | 824 nM |
| Cc1cc(=O)oc2c(CN3CCCCC3)c(O)ccc12 | 988 nM |
| CCN(CC)c1ccc2c(C)c(Cl)c(=O)oc2c1 | 964 nM |
| O=C(NCc1ccccn1)[C@@H]1[C@@H](CO)[C@@H]2Cn3c(ccc(/C=C/c4ccccc4)c3=O)[C@H]1N2CC1CC1 | 1030 nM |
| CC(=O)N1[C@@H]2Cn3c(ccc(/C=C/c4ccccc4)c3=O)[C@H]1[C@@H](C(=O)NCC1CC1)[C@@H]2CO | 1290 nM |
| Cc1cc(=O)oc2cc(NS(=O)(=O)c3ccc(F)cc3)ccc12 | 998 nM |
| CCN(CC)Cc1c(O)c(Cl)cc2c(C)cc(=O)oc12 | 620 nM |
| CCN1CCN(Cc2c(O)ccc3c(C)cc(=O)oc23)CC1 | 1540 nM |
| CC(=O)N1[C@@H]2c3ccc(/C=C/c4ccccc4)c(=O)n3C[C@H]1[C@H](CO)[C@H]2C(=O)N(C)C | 906 nM |
| CCc1c(C)c2cc(Cl)c(O)c(CN(CC)CC)c2oc1=O | 546 nM |
| CC1CN(Cc2cc(=O)oc3cc(O)c(Cl)cc23)CC(C)O1 (stereo not drawn) | 1350 nM |
| COc1ccc(-c2cc3ccc(O)cc3oc2=O)cc1OC | 983 nM |
| Cc1c(O)ccc2cc(S(=O)(=O)c3ccccc3)c(=O)oc12 | 439 nM |
| O=c1ccc2cc(O[C@@H]3O[C@@H](CO)[C@H](O)[C@@H](O)[C@@H]3O)c(O)cc2o1 | 363 nM |
| O=c1ccc2cc(O[C@@H]3O[C@H](CO)[C@@H](O)[C@H](O)[C@H]3O)c(O)cc2o1 | 307 nM |
| O=C(C[C@H]1CC[C@@H]2[C@H](COC[C@@H](O)CN2C(=O)Nc2cccc(Cl)c2)O1)N1CCCCC1 | > 11000 nM (inactive) |

| Compound | AC200 |
| --- | --- |
| COC(=O)[C@H]1[C@H](CO)[C@H]2Cn3c(ccc(/C=C/c4ccccc4)c3=O)[C@@H]1N2C(=O)C1CCC1 | 842 nM |
| CCN1[C@@H]2c3ccc(/C=C/c4ccccc4)c(=O)n3C[C@H]1[C@H](CO)[C@H]2C(=O)N1CCOCC1 | 2310 nM |
| O=c1cc(CN2CCN(Cc3ccccc3)CC2)c2ccc(O)cc2o1 | 1470 nM |
| CCc1c(C)c2cc(Cl)c(O)c(CN(C)C)c2oc1=O | 471 nM |
| Cc1cc(=O)oc2cc(OCC(=O)N3CCN(C(C)c4ccccc4)CC3)c(Cl)cc12 (stereo not drawn) | 1980 nM |
| O=c1oc2cc(O)ccc2cc1S(=O)(=O)c1ccccc1 | 351 nM |
| C/C(=N\NC(=O)CC#N)c1cc2ccc(O)cc2oc1=O | 1080 nM |
| Cc1c(C)c2ccc(O)c(CN3CCCC3)c2oc1=O | 1040 nM |
| Cc1c(CC(=O)N2CCN(C(=O)C3COc4ccccc4O3)CC2)c(=O)oc2cc(O)c(Cl)cc12 (stereo not drawn) | 661 nM |
| COc1cccc(CN(C)Cc2cc(=O)oc3cc(O)c(Cl)cc23)c1 | 793 nM |
| CN1CCCC1CCNc1ccc2c(=O)c3ccccc3oc2c1 (stereo not drawn) | 555 nM |
| CCCCc1cc(=O)oc2cc(O)ccc12 | 1670 nM |
| COCC(=O)N1[C@@H]2c3ccc(/C=C/c4ccccc4)c(=O)n3C[C@H]1[C@H](CO)[C@H]2C(=O)N1CCOCC1 | 684 nM |
| Cc1ccc2nc3c(cc(C(=O)NCc4ccccc4)c(=N)n3CCCn3ccnc3)c(=O)n2c1 | 2010 nM |
| Cc1c(O)ccc2c(CN3CCN(Cc4ccccc4)CC3)cc(=O)oc12 | > 2600 nM (inactive) |
| Cc1ccc(S(=O)(=O)c2cc3ccc(O)cc3oc2=O)cc1C | 362 nM |
| CCCc1cc(=O)oc2c(CN(CC)CC)c(O)c(Cl)cc12 | 638 nM |

Same assay, conditions: purified IRAP, Leu-AMC cleavage fluorescence, 1 h; at 2.6 µM (top of the series)

| Compound | activation |
| --- | --- |
| COc1cc2cc(C(=O)N3CCN(Cc4ccc5c(c4)OCO5)CC3)c(=O)oc2cc1OC | 150% (inactive) |

Same assay, conditions: purified IRAP, Leu-AMC cleavage fluorescence, 1 h; at 5 µM (top of the series)

| Compound | activation |
| --- | --- |
| C[C@@H]1CCCCO[C@@H](CN(C)C(=O)CCC(F)(F)F)[C@@H](C)CN([C@@H](C)CO)C(=O)c2cc(NS(=O)(=O)c3ccc(Cl)cc3)ccc2O1 | 22.3% (inactive) |
| CCCN(C)C[C@@H]1OCCCC[C@@H](C)Oc2ccc(NS(=O)(=O)c3ccc(C)cc3)cc2C(=O)N([C@@H](C)CO)C[C@@H]1C | 0.889% (inactive) |

Same assay, conditions: purified IRAP, Leu-AMC cleavage fluorescence, 1 h; at 5.6 µM (top of the series)

| Compound | activation |
| --- | --- |
| Cc1ccc(-c2cc(C(=O)N3CCCC3)c3ccccc3n2)s1 | 152% (inactive) |

Same assay, conditions: purified IRAP, Leu-AMC cleavage fluorescence, 1 h; at 8 µM (top of the series)

| Compound | activation |
| --- | --- |
| CCCN(C)C[C@@H]1OCCCC[C@@H](C)Oc2ccc(NS(=O)(=O)c3ccc(OC)cc3)cc2C(=O)N([C@H](C)CO)C[C@@H]1C | -24.7% (inactive) |

Same assay, conditions: purified IRAP, Leu-AMC cleavage fluorescence, 1 h; at 10 µM (top of the series)

| Compound | activation |
| --- | --- |
| C[C@@H]1CCCCO[C@@H](CN(C)C)[C@H](C)CN([C@@H](C)CO)C(=O)c2cc(NC(=O)Nc3ccc(C(F)(F)F)cc3)ccc2O1 | -1.06% (inactive) |

Same assay, conditions: purified IRAP, Leu-AMC cleavage fluorescence, 1 h; at 11 µM (top of the series)

| Compound | activation |
| --- | --- |
| COc1ccc(C(=O)O)cc1S(=O)(=O)Nc1cc(C(F)(F)F)ccc1N1CCCCC1 | 18.7% (inactive) |
| O=C(O)c1ccccc1NS(=O)(=O)c1cccc(-n2sc3ccccc3c2=O)c1 | -25.6% (inactive) |
| COc1ccc(NC(=O)Nc2ccc3c(c2)C(=O)N([C@@H](C)CO)C[C@@H](C)[C@H](CN(C)Cc2ccc(C(=O)O)cc2)OCCCC[C@H](C)O3)cc1 | 58.5% (inactive) |
| NC(=NCCc1c[nH]c2ccccc12)NS(=O)(=O)c1cc(F)ccc1F | 20.9% (inactive) |
| CCCN(C)C[C@@H]1OCCCC[C@H](C)Oc2ccc(NC(=O)Nc3ccc(F)cc3)cc2C(=O)N([C@H](C)CO)C[C@@H]1C | -36.2% (inactive) |
| C[C@@H]1CN([C@H](C)CO)C(=O)c2cc(NC(=O)Nc3ccc(F)cc3)ccc2O[C@H]1CN(C)Cc1ccc(C(=O)O)cc1 | 1.25% (inactive) |
| C[C@@H]1CCCCO[C@@H](CN(C)CC2CC2)[C@@H](C)CN([C@H](C)CO)C(=O)c2cc(NS(=O)(=O)c3cccs3)ccc2O1 | 11.9% (inactive) |
| CO[C@@H]1CN(C)C(=O)c2ccc(NC(=O)Nc3cccc(Cl)c3)cc2OC[C@@H](C)NC[C@H]1C | 15.1% (inactive) |
| C[C@H]1CN([C@@H](C)CO)C(=O)c2cccc(NC(=O)Nc3ccc4c(c3)OCO4)c2O[C@@H]1CN(C)CC1CC1 | -1.26% (inactive) |
| Cc1noc(C)c1NC(=O)Nc1ccc2c(c1)C(=O)N([C@H](C)CO)C[C@@H](C)[C@@H](CN(C)Cc1ccc(C(F)(F)F)cc1)OCCCC[C@@H](C)O2 | -4.93% (inactive) |
| C[C@H]1CN([C@@H](C)CO)C(=O)c2cccc(NC(=O)Nc3ccc(C(F)(F)F)cc3)c2O[C@@H]1CN(C)CC1CC1 | -18.4% (inactive) |
| COc1ccc(CN(C)C[C@@H]2OCCCC[C@H](C)Oc3ccc(NS(=O)(=O)c4cccs4)cc3C(=O)N([C@H](C)CO)C[C@@H]2C)cc1 | -13.3% (inactive) |
| Cc1noc(C)c1NC(=O)N(C)C[C@@H]1Oc2c(NC(=O)Nc3ccc(F)cc3)cccc2C(=O)N([C@H](C)CO)C[C@@H]1C | 36.7% (inactive) |
| C[C@H](CO)N1C[C@H](C)[C@@H](CN(C)CC2CC2)Oc2c(NC(=O)Nc3ccc(C(F)(F)F)cc3)cccc2C1=O | -14.9% (inactive) |
| C[C@H](CO)N1C[C@H](C)[C@H](CN(C)Cc2ccncc2)Oc2c(NC(=O)Nc3ccc(C(F)(F)F)cc3)cccc2C1=O | 10.6% (inactive) |
| C[C@H](CO)N1C[C@H](C)[C@H](CN(C)CC2CCCCC2)Oc2c(NC(=O)Nc3ccc(C(F)(F)F)cc3)cccc2C1=O | 12.3% (inactive) |
| COc1ccc(NC(=O)Nc2cccc3c2O[C@H](CN(C)Cc2ccc(C(=O)O)cc2)[C@H](C)CN([C@H](C)CO)C3=O)cc1 | 8.21% (inactive) |

| Compound | activation |
| --- | --- |
| Cc1ccc(S(=O)(=O)Nc2ccc3c(c2)C(=O)N([C@@H](C)CO)C[C@H](C)[C@H](CN(C)C)OCCCC[C@@H](C)O3)cc1 | 8.57% (inactive) |
| C[C@@H]1CCCCO[C@@H](CN(C)Cc2ccc(C(=O)O)cc2)[C@@H](C)CN([C@H](C)CO)C(=O)c2cc(NC(=O)Nc3cccc4ccccc34)ccc2O1 | -5.32% (inactive) |
| CCCNC(=O)C[C@H]1CC[C@@H]2[C@H](COC[C@H](O)CN2C(=O)Nc2cccc(Cl)c2)O1 | 24.9% (inactive) |
| CCCNC(=O)C[C@@H]1CC[C@@H]2[C@H](COC[C@H](O)CN2C(=O)Nc2cccc(Cl)c2)O1 | 30.1% (inactive) |
| C[C@@H]1CCCCO[C@H](CN(C)Cc2ccccc2)[C@H](C)CN([C@H](C)CO)C(=O)c2cc(NS(=O)(=O)c3ccccc3)ccc2O1 | -9.37% (inactive) |
| COc1ccc(CN(C)C[C@H]2OCCCC[C@@H](C)Oc3ccc(NS(=O)(=O)c4cccs4)cc3C(=O)N([C@@H](C)CO)C[C@H]2C)cc1 | 2.6% (inactive) |
| C[C@@H]1CCCCO[C@@H](CN(C)S(C)(=O)=O)[C@@H](C)CN([C@@H](C)CO)C(=O)c2cc(NS(=O)(=O)c3ccc(Cl)cc3)ccc2O1 | -13.3% (inactive) |
| Cc1noc(C)c1NC(=O)N(C)C[C@@H]1Oc2c(NC(=O)Nc3ccccc3)cccc2C(=O)N([C@H](C)CO)C[C@@H]1C | 12.9% (inactive) |
| COC(=O)[C@H]1[C@H](CO)[C@H]2Cn3c(ccc(-c4ccncc4)c3=O)[C@H]2N1Cc1ccccc1F | 19% (inactive) |
| O=C(O)c1cccc(NC(=O)c2ccccc2NC(=O)c2cccc([N+](=O)[O-])c2)c1 | 8.03% (inactive) |
| CCCN(C)C[C@@H]1OCCCC[C@@H](C)Oc2ccc(NS(=O)(=O)c3cccs3)cc2C(=O)N([C@H](C)CO)C[C@@H]1C | -6.14% (inactive) |
| CCn1cc(CN2CCCC(C(=O)Nc3ccc(-c4nc5ccccc5[nH]4)cc3)C2)c(C)n1 (stereo not drawn) | -5.33% (inactive) |
| C[C@@H]1CCCCO[C@@H](CN(C)CC2CC2)[C@@H](C)CN([C@H](C)CO)C(=O)c2cc(NS(=O)(=O)c3ccc(Cl)cc3)ccc2O1 | -6.39% (inactive) |
| Cc1ccccc1-c1ccc2c(c1)O[C@@H](CN(C)Cc1ccc(C(=O)O)cc1)[C@@H](C)CN([C@H](C)CO)S2(=O)=O | 3.78% (inactive) |
| C[C@H]1CN([C@@H](C)CO)C(=O)c2cccc(NC(=O)Nc3ccc(F)cc3)c2O[C@@H]1CN(C)C(=O)Nc1ccc2c(c1)OCO2 | 21.6% (inactive) |
| COc1ccc(CN(C)C[C@@H]2OCCCC[C@@H](C)Oc3ccc(NS(=O)(=O)c4cccs4)cc3C(=O)N([C@@H](C)CO)C[C@H]2C)cc1 | -1.66% (inactive) |
